Source: patent US11833178B2, “Bifidobacterium longum for treating obesity and weight management” (priority 2017, dated 2023)
In brackets after ≈: the same amount, converted by molar mass. Where two headings read alike, the source gives them in different places.

Tested on: Bifidobacterium longum APC1472
Assay: Antibiotic susceptibility (VetMIC plates, ISO 10932:2010)
Assay type: cell-based, Bifidobacterium longum ssp. longum
Settings: read-out: MICs
Description: Antibiotic susceptibility was tested with […] plates Lact-1 and Lact-2 supplied from SVA (National Veterinary Institute, Uppsala, Sweden). […] MICs were determined as 80% or more reduction in pellet, compared to positive control lane. Borderline cases were interpreted by visual examples from “Methods for Antimicrobial Susceptibility Testing of Anaerobic Bacteria: Approved Standard” (CLSI, 7th edition).

[1] = APC1472, range of MICs for duplicate experiments, 37° C., 48 h

Row | Compound | MIC [1] [µg/mL] | MIC (APC1472, 48 h) [µg/mL]
1 | O=C(N[C@H](CO)[C@H](O)c1ccc([N+](=O)[O-])cc1)C(Cl)Cl [Cm, Chloramphenicol] | 2 (≈ 6.19 µM) | 
2 | CN[C@H](CC(C)C)C(=O)N[C@H]1C(=O)N[C@@H](CC(N)=O)C(=O)N[C@H]2C(=O)N[C@H]3C(=O)N[C@H](C(=O)N[C@H](C(=O)O)c4cc(O)cc(O)c4-c4cc3ccc4O)[C@H](O)c3ccc(c(Cl)c3)Oc3cc2cc(c3O[C@@H]2O[C@H](CO)[C@@H](O)[C@H](O)[C@H]2O[C@H]2C[C@](C)(N)[C@H](O)[C@H](C)O2)Oc2ccc(cc2Cl)[C@H]1O [Va, Vancomycin] |  | 0.5 (≈ 0.345 µM)
3 | CN(C)[C@@H]1C(O)=C(C(N)=O)C(=O)[C@@]2(O)C(O)=C3C(=O)c4c(O)cccc4[C@@](C)(O)[C@H]3C[C@@H]12 [Tc, Tetracycline] | 1 (≈ 2.25 µM) | 
4 | CC1(C)S[C@@H]2[C@H](NC(=O)[C@H](N)c3ccccc3)C(=O)N2[C@H]1C(=O)O [Am, Ampicillin] | 2 (≈ 5.72 µM) | 

Second part, led by results:

Row | MIC [1] [µg/mL] | Compound | MIC (APC1472, 48 h) [µg/mL]
5 | 64 to 128 (≈ 110 to 220 µM) | [H]/N=C(/N)N[C@H]1[C@H](O)[C@@H](O)[C@H](O[C@@H]2O[C@@H](C)[C@](O)(C=O)[C@H]2O[C@@H]2O[C@@H](CO)[C@H](O)[C@@H](O)[C@@H]2NC)[C@@H](N/C(N)=N\[H])[C@@H]1O [Sm, Streptomycin] | 
6 | 0.06 to 0.12 (≈ 0.0818 to 0.164 µM) | CC[C@H]1OC(=O)[C@H](C)[C@@H](O[C@H]2C[C@@](C)(OC)[C@@H](O)[C@H](C)O2)[C@H](C)[C@@H](O[C@@H]2O[C@H](C)C[C@H](N(C)C)[C@H]2O)[C@](C)(O)C[C@@H](C)C(=O)[C@H](C)[C@@H](O)[C@]1(C)O [Em, Erythromycin] | 
